Measurements: the NIST ThermoML archive (doi:10.1021/je060271a)
Several values for one entry are separate records, joined by “and”; a condition that tells them apart may be missing. Equal entries are not always repeated.

Settings: Liquid, Vibrating tube method

CCCCCC(=O)OCC(COC(=O)CCCCC)(COC(=O)CCCCC)COC(=O)CCCCC [pentaerythritol tetrahexanoate]
Settings | mass density
323.15 K, 11949 kPa | 980.8 kg/m3
323.15 K, 11977 kPa | 980.8 kg/m3
323.15 K, 12000 kPa | 980.8 kg/m3
323.15 K, 12028 kPa | 980.8 kg/m3
323.15 K, 12051 kPa | 980.9 kg/m3
323.15 K, 12077 kPa | 980.9 kg/m3
323.15 K, 12104 kPa | 981 kg/m3
323.15 K, 12127 kPa | 980.9 kg/m3
323.15 K, 12155 kPa | 980.9 kg/m3
323.15 K, 12178 kPa | 981 kg/m3
323.15 K, 12205 kPa | 981 kg/m3
323.15 K, 12233 kPa | 980.9 kg/m3
323.15 K, 12257 kPa | 981 kg/m3
323.15 K, 12285 kPa | 981.1 kg/m3
323.15 K, 12310 kPa | 981.2 kg/m3
323.15 K, 12338 kPa | 981.1 kg/m3
323.15 K, 12362 kPa | 981.2 kg/m3
323.15 K, 12390 kPa | 981.1 kg/m3
323.15 K, 12414 kPa | 981 kg/m3
323.15 K, 12442 kPa | 981.2 kg/m3
323.15 K, 12471 kPa | 981.2 kg/m3
323.15 K, 12494 kPa | 981.2 kg/m3
323.15 K, 12523 kPa | 981.3 kg/m3
323.15 K, 12547 kPa | 981.4 kg/m3
323.15 K, 12576 kPa | 981.2 kg/m3
323.15 K, 12605 kPa | 981.4 kg/m3
323.15 K, 12630 kPa | 981.2 kg/m3
323.15 K, 12927 kPa | 981.5 kg/m3
323.15 K, 12950 kPa | 981.5 kg/m3
323.15 K, 12980 kPa | 981.6 kg/m3
323.15 K, 13006 kPa | 981.6 kg/m3
323.15 K, 13029 kPa | 981.6 kg/m3
323.15 K, 13186 kPa | 981.7 kg/m3
323.15 K, 13214 kPa | 981.6 kg/m3
323.15 K, 13237 kPa | 981.6 kg/m3
323.15 K, 13264 kPa | 981.8 kg/m3
323.15 K, 13292 kPa | 981.7 kg/m3
323.15 K, 13315 kPa | 981.8 kg/m3
323.15 K, 13345 kPa | 981.8 kg/m3
323.15 K, 13368 kPa | 981.9 kg/m3
323.15 K, 13396 kPa | 981.8 kg/m3
323.15 K, 13420 kPa | 981.8 kg/m3
323.15 K, 13891 kPa | 982.1 kg/m3
323.15 K, 13918 kPa | 982.1 kg/m3
323.15 K, 13941 kPa | 982.1 kg/m3
323.15 K, 13969 kPa | 982.2 kg/m3
323.15 K, 13992 kPa | 982.2 kg/m3
323.15 K, 14020 kPa | 982.3 kg/m3
323.15 K, 14514 kPa | 982.5 kg/m3
323.15 K, 14565 kPa | 982.6 kg/m3
323.15 K, 14593 kPa | 982.6 kg/m3
323.15 K, 14621 kPa | 982.6 kg/m3
323.15 K, 14645 kPa | 982.6 kg/m3
323.15 K, 14674 kPa | 982.6 kg/m3
323.15 K, 14698 kPa | 982.5 kg/m3
323.15 K, 14726 kPa | 982.7 kg/m3
323.15 K, 14750 kPa | 982.7 kg/m3
323.15 K, 14778 kPa | 982.8 kg/m3
323.15 K, 14807 kPa | 982.7 kg/m3
323.15 K, 14831 kPa | 982.8 kg/m3
323.15 K, 15257 kPa | 983 kg/m3
323.15 K, 15281 kPa | 983.1 kg/m3
323.15 K, 15309 kPa | 983.1 kg/m3
323.15 K, 15339 kPa | 983 kg/m3
323.15 K, 15364 kPa | 983.2 kg/m3
323.15 K, 15393 kPa | 983.1 kg/m3
323.15 K, 15417 kPa | 983.1 kg/m3
323.15 K, 20896 kPa | 986.7 kg/m3
323.15 K, 22666 kPa | 987.8 kg/m3
323.15 K, 28442 kPa | 991.1 kg/m3
323.15 K, 28670 kPa | 991.3 kg/m3
323.15 K, 28695 kPa | 991.4 kg/m3
323.15 K, 28724 kPa | 991.4 kg/m3
323.15 K, 28754 kPa | 991.4 kg/m3
323.15 K, 28783 kPa | 991.4 kg/m3
323.15 K, 28808 kPa | 991.4 kg/m3
323.15 K, 28838 kPa | 991.4 kg/m3
323.15 K, 28867 kPa | 991.4 kg/m3
323.15 K, 28897 kPa | 991.6 kg/m3
323.15 K, 28927 kPa | 991.5 kg/m3
323.15 K, 28957 kPa | 991.6 kg/m3
323.15 K, 28982 kPa | 991.5 kg/m3
323.15 K, 29012 kPa | 991.5 kg/m3
323.15 K, 29044 kPa | 991.5 kg/m3
323.15 K, 29070 kPa | 991.5 kg/m3
323.15 K, 29101 kPa | 991.7 kg/m3
323.15 K, 29132 kPa | 991.7 kg/m3
323.15 K, 29158 kPa | 991.6 kg/m3
323.15 K, 29554 kPa | 991.8 kg/m3
323.15 K, 29577 kPa | 991.9 kg/m3
323.15 K, 29762 kPa | 992 kg/m3
323.15 K, 29785 kPa | 992 kg/m3
323.15 K, 29812 kPa | 992 kg/m3
323.15 K, 29839 kPa | 992.1 kg/m3
323.15 K, 29866 kPa | 992.2 kg/m3
323.15 K, 29893 kPa | 992.1 kg/m3
323.15 K, 29921 kPa | 992 kg/m3
323.15 K, 29944 kPa | 992 kg/m3
323.15 K, 29972 kPa | 992.2 kg/m3
323.15 K, 30466 kPa | 992.5 kg/m3
323.15 K, 30496 kPa | 992.4 kg/m3
323.15 K, 30520 kPa | 992.4 kg/m3
323.15 K, 30549 kPa | 992.5 kg/m3
323.15 K, 31454 kPa | 992.9 kg/m3
323.15 K, 31474 kPa | 992.9 kg/m3
323.15 K, 31495 kPa | 993 kg/m3
323.15 K, 31516 kPa | 993 kg/m3
323.15 K, 31533 kPa | 993 kg/m3
323.15 K, 31653 kPa | 993.1 kg/m3
323.15 K, 31674 kPa | 993.2 kg/m3
323.15 K, 31695 kPa | 993.2 kg/m3
323.15 K, 31717 kPa | 993.1 kg/m3
323.15 K, 31734 kPa | 993.2 kg/m3
323.15 K, 31755 kPa | 993.1 kg/m3
323.15 K, 32384 kPa | 993.6 kg/m3 and 993.5 kg/m3
323.15 K, 32385 kPa | 993.5 kg/m3
323.15 K, 32386 kPa | 993.5 kg/m3
323.15 K, 32387 kPa | 993.6 kg/m3
323.16 K, 578.8 kPa | 973 kg/m3
323.16 K, 580.8 kPa | 973.2 kg/m3
323.16 K, 582.6 kPa | 973.1 kg/m3
323.16 K, 584.7 kPa | 973 kg/m3
323.16 K, 586.6 kPa | 973 kg/m3
323.16 K, 588.7 kPa | 973 kg/m3
323.16 K, 590.7 kPa | 973.3 kg/m3
323.16 K, 714.1 kPa | 973.2 kg/m3
323.16 K, 716.9 kPa | 973.2 kg/m3
323.16 K, 718.8 kPa | 973.3 kg/m3
323.16 K, 721.8 kPa | 973.3 kg/m3
323.16 K, 724 kPa | 973.2 kg/m3
323.16 K, 727.1 kPa | 973.1 kg/m3
323.16 K, 729.4 kPa | 973.2 kg/m3
323.16 K, 732.2 kPa | 973.2 kg/m3
323.16 K, 735.1 kPa | 973.1 kg/m3
323.16 K, 737.9 kPa | 973.2 kg/m3
323.16 K, 1019.3 kPa | 973.3 kg/m3
323.16 K, 1022.8 kPa | 973.4 kg/m3
323.16 K, 1026.6 kPa | 973.4 kg/m3
323.16 K, 1030.3 kPa | 973.5 kg/m3
323.16 K, 1034.3 kPa | 973.3 kg/m3
323.16 K, 1037.9 kPa | 973.5 kg/m3
323.16 K, 1042.3 kPa | 973.3 kg/m3
323.16 K, 1045.6 kPa | 973.4 kg/m3
323.16 K, 1049.9 kPa | 973.4 kg/m3
323.16 K, 1053.7 kPa | 973.4 kg/m3
